Test results from publication PMC5218480 (PLoS ONE, 2017).

Tested on: MV-4-11 cells
Test: Gene expression microarray analysis (Affymetrix PrimeView) and GSEA
Assay type: cell-based, human
Set-up: RFU PODN (11730768_x_at) / Fold change /veh PODN (11730768_x_at) / RFU LINC00158 (11744669_a_at) / Fold change /veh LINC00158 (11744669_a_at) / RFU DUSP10 (11751237_a_at) / Fold change /veh DUSP10 (11751237_a_at) / RFU ID3 (11757404_x_at) / Fold change /veh ID3 (11757404_x_at) / RFU PLEKHG5 (11737974_s_at) / Fold change /veh PLEKHG5 (11737974_s_at) / RFU LRRC4B (11730491_at) / Fold change /veh LRRC4B (11730491_at) / RFU GIMAP4 (11747438_a_at) / Fold change /veh GIMAP4 (11747438_a_at) / RFU KRT8 (11758183_x_at) / Fold change /veh KRT8 (11758183_x_at) / RFU CNN1 (11734310_a_at) / Fold change /veh CNN1 (11734310_a_at) / RFU VPS37D (11726825_at) / Fold change /veh VPS37D (11726825_at) / RFU C10orf10 (11716522_x_at) / Fold change /veh C10orf10 (11716522_x_at) / RFU KIR2DL2 /// KIR2DL4 /// KIR2DL5A /// KIR2DL5B /// KIR2DS1 /// KIR2DS2 /// KIR2DS3 /// KIR2DS4 /// KIR3DL3 /// KIR3DL3 /// KIR3DS1 (11738374_at) / Fold change /veh KIR2DL2 /// KIR2DL4 /// KIR2DL5A /// KIR2DL5B /// KIR2DS1 /// KIR2DS2 /// KIR2DS3 /// KIR2DS4 /// KIR3DL3 /// KIR3DL3 /// KIR3DS1 (11738374_at) / RFU C1QL1 (11718748_at) / Fold change /veh C1QL1 (11718748_at) / RFU TMPRSS4 (11747572_a_at) / Fold change /veh TMPRSS4 (11747572_a_at) / RFU HAMP (11756126_x_at) / Fold change /veh HAMP (11756126_x_at) / RFU RNFT2 (11725882_a_at) / Fold change /veh RNFT2 (11725882_a_at) / RFU NR4A2 (11747474_a_at) / Fold change /veh NR4A2 (11747474_a_at) / RFU ABCC12 (11746883_a_at) / Fold change /veh ABCC12 (11746883_a_at) / RFU TMEM136 (11760407_x_at) / Fold change /veh TMEM136 (11760407_x_at) / RFU CLDN22 /// WWC2 (11732394_at) / Fold change /veh CLDN22 /// WWC2 (11732394_at) / RFU HLA-DPB1 (11760878_x_at) / Fold change /veh HLA-DPB1 (11760878_x_at) / RFU SPINT1 (11716480_a_at) / Fold change /veh SPINT1 (11716480_a_at) / RFU GAP43 (11754022_s_at) / Fold change /veh GAP43 (11754022_s_at) / RFU A4GNT (11735810_at) / Fold change /veh A4GNT (11735810_at) / RFU PRB3 (11715151_x_at) / Fold change /veh PRB3 (11715151_x_at) / RFU TUBB4B (11761932_at) / Fold change /veh TUBB4B (11761932_at) / RFU CAPN14 (11732068_a_at) / Fold change /veh CAPN14 (11732068_a_at) / RFU TMCC2 (11721928_a_at) / Fold change /veh TMCC2 (11721928_a_at) / RFU IRGQ (11745062_a_at) / Fold change /veh IRGQ (11745062_a_at) / RFU FAM174B (11720279_a_at) / Fold change /veh FAM174B (11720279_a_at) / RFU TMPRSS4 (11748680_a_at) / Fold change /veh TMPRSS4 (11748680_a_at) / RFU FAM212B (11763350_a_at) / Fold change /veh FAM212B (11763350_a_at) / RFU PLEKHG5 (11743358_a_at) / Fold change /veh PLEKHG5 (11743358_a_at) / RFU ZSCAN30 (11745921_a_at) / Fold change /veh ZSCAN30 (11745921_a_at) / RFU CMKLR1 (11741424_a_at) / Fold change /veh CMKLR1 (11741424_a_at) / RFU LOC101060620 /// MAPK8IP1 (11723275_at) / Fold change /veh LOC101060620 /// MAPK8IP1 (11723275_at) / RFU SPTSSB (11747773_x_at) / Fold change /veh SPTSSB (11747773_x_at) / RFU PRSS12 (11739890_at) / Fold change /veh PRSS12 (11739890_at) / RFU BIN1 (11741810_x_at) / Fold change /veh BIN1 (11741810_x_at) / RFU WNT11 (11732464_a_at) / Fold change /veh WNT11 (11732464_a_at) / RFU C10orf10 (11716521_a_at) / Fold change /veh C10orf10 (11716521_a_at) / RFU C5orf56 (11738089_at) / Fold change /veh C5orf56 (11738089_at) / RFU CYB561 (11721691_x_at) / Fold change /veh CYB561 (11721691_x_at) / RFU ANKRD19P (11752326_a_at) / Fold change /veh ANKRD19P (11752326_a_at) / RFU OR2T12 /// OR2T33 /// OR2T8 (11738714_s_at) / Fold change /veh OR2T12 /// OR2T33 /// OR2T8 (11738714_s_at) / RFU VCAN (11748164_a_at) / Fold change /veh VCAN (11748164_a_at) / RFU JSRP1 (11732532_at) / Fold change /veh JSRP1 (11732532_at) / RFU KRTAP10-11 (11738290_x_at) / Fold change /veh KRTAP10-11 (11738290_x_at) / RFU MYO3A (11730013_a_at) / Fold change /veh MYO3A (11730013_a_at) / RFU EBF3 (11725865_a_at) / Fold change /veh EBF3 (11725865_a_at) / RFU CAMK2N1 (11719241_x_at) / Fold change /veh CAMK2N1 (11719241_x_at) / RFU C5orf56 (11738088_a_at) / Fold change /veh C5orf56 (11738088_a_at) / RFU OLFML3 (11715873_a_at) / Fold change /veh OLFML3 (11715873_a_at) / RFU LOC100653217 /// NTM (11731650_a_at) / Fold change /veh LOC100653217 /// NTM (11731650_a_at) / RFU MAPK11 (11762145_a_at) / Fold change /veh MAPK11 (11762145_a_at) / RFU FIZ1 (11724087_x_at) / Fold change /veh FIZ1 (11724087_x_at) / RFU OASL (11726364_x_at) / Fold change /veh OASL (11726364_x_at) / RFU SOX15 (11748057_x_at) / Fold change /veh SOX15 (11748057_x_at) / RFU CD79A (11719716_a_at) / Fold change /veh CD79A (11719716_a_at) / RFU HIST1H1D (11736915_at) / Fold change /veh HIST1H1D (11736915_at) / RFU CASKIN2 (11723855_a_at) / Fold change /veh CASKIN2 (11723855_a_at) / RFU LOC730098 (11760151_x_at) / Fold change /veh LOC730098 (11760151_x_at) / RFU OR4N2 (11742367_at) / Fold change /veh OR4N2 (11742367_at) / RFU PRRT2 (11749266_a_at) / Fold change /veh PRRT2 (11749266_a_at) / RFU SNX32 (11753110_a_at) / Fold change /veh SNX32 (11753110_a_at) / RFU CDHR5 (11726645_a_at) / Fold change /veh CDHR5 (11726645_a_at) / RFU RCAN1 (11760418_a_at) / Fold change /veh RCAN1 (11760418_a_at) / RFU FAM167A (11723789_a_at) / Fold change /veh FAM167A (11723789_a_at) / RFU FAM26E (11764081_at) / Fold change /veh FAM26E (11764081_at) / RFU ISYNA1 (11749810_s_at) / Fold change /veh ISYNA1 (11749810_s_at) / RFU ACY1 (11761880_at) / Fold change /veh ACY1 (11761880_at) / RFU 11764098_at / Fold change /veh 11764098_at / RFU SAMD14 (11745864_x_at) / Fold change /veh SAMD14 (11745864_x_at) / RFU NPB (11741838_a_at) / Fold change /veh NPB (11741838_a_at) / RFU TMPRSS6 (11731388_a_at) / Fold change /veh TMPRSS6 (11731388_a_at) / RFU KRTAP10-2 (11738614_at) / Fold change /veh KRTAP10-2 (11738614_at) / RFU ARHGAP8 /// PRR5-ARHGAP8 (11727945_x_at) / Fold change /veh ARHGAP8 /// PRR5-ARHGAP8 (11727945_x_at) / RFU KRTAP5-7 /// NADSYN1 (11734609_at) / Fold change /veh KRTAP5-7 /// NADSYN1 (11734609_at) / RFU RASL12 (11751679_a_at) / Fold change /veh RASL12 (11751679_a_at) / RFU CDKN2B (11736163_a_at) / Fold change /veh CDKN2B (11736163_a_at) / RFU PRF1 (11729649_at) / Fold change /veh PRF1 (11729649_at) / RFU, ZNF638 /// ZNF638-IT1 / Fold change vs veh, ZNF638 /// ZNF638-IT1 / RFU, PANK3 / Fold change vs veh, PANK3 / RFU, SH3YL1 / Fold change vs veh, SH3YL1 / RFU, ZEB2 / Fold change vs veh, ZEB2 / RFU, NRIP1 / Fold change vs veh, NRIP1 / RFU, PTTG1IP / Fold change vs veh, PTTG1IP / RFU, CAPN2 / Fold change vs veh, CAPN2 / RFU, MED14 / Fold change vs veh, MED14 / RFU, SNORA58 / Fold change vs veh, SNORA58 / RFU, C1orf63 / Fold change vs veh, C1orf63 / RFU, LRRFIP1 / Fold change vs veh, LRRFIP1 / RFU, NDUFAF7 / Fold change vs veh, NDUFAF7 / RFU, SLC12A2 / Fold change vs veh, SLC12A2 / RFU, IBTK / Fold change vs veh, IBTK / RFU, ESF1 / Fold change vs veh, ESF1 / Fold change vs veh, TMEM50B / RFU, TAOK1 / Fold change vs veh, TAOK1 / RFU, ACBD3 / Fold change vs veh, ACBD3 / RFU, TMA16 / Fold change vs veh, TMA16 / RFU, RWDD3 / Fold change vs veh, RWDD3 / RFU, BCAT1 / Fold change vs veh, BCAT1 / RFU, EDEM3 / Fold change vs veh, EDEM3 / RFU, TMEM33 / Fold change vs veh, TMEM33 / RFU, WDR75 / Fold change vs veh, WDR75 / RFU, AHCTF1 / Fold change vs veh, AHCTF1 / RFU, TFRC / Fold change vs veh, TFRC / RFU, ZDHHC17 / Fold change vs veh, ZDHHC17 / RFU, NOM1 / Fold change vs veh, NOM1 / RFU, ARL8B / Fold change vs veh, ARL8B / RFU, ZBTB11 / Fold change vs veh, ZBTB11 / RFU, TAMM41 / Fold change vs veh, TAMM41 / RFU, KIAA1704 /// LOC100996395 / Fold change vs veh, KIAA1704 /// LOC100996395 / RFU, ING1 / Fold change vs veh, ING1 / RFU, TRMT61B / Fold change vs veh, TRMT61B / RFU, FUBP3 / Fold change vs veh, FUBP3 / RFU, TP53 / Fold change vs veh, TP53 / RFU, TNKS2 / Fold change vs veh, TNKS2 / RFU, ZFP14 / Fold change vs veh, ZFP14 / RFU, ACTR2 / Fold change vs veh, ACTR2 / RFU, PPP3R1 / Fold change vs veh, PPP3R1 / RFU, PIK3R1 / Fold change vs veh, PIK3R1 / RFU, HNRNPA1 / Fold change vs veh, HNRNPA1 / RFU, RNF170 / Fold change vs veh, RNF170 / RFU, ZNF28 / Fold change vs veh, ZNF28 / RFU, RNGTT / Fold change vs veh, RNGTT / RFU, OGT / Fold change vs veh, OGT / RFU, BRD1 / Fold change vs veh, BRD1 / RFU, MARS / Fold change vs veh, MARS / RFU, ZNF655 / Fold change vs veh, ZNF655 / RFU, FAHD1 / Fold change vs veh, FAHD1 / RFU, BDP1 / Fold change vs veh, BDP1 / RFU, LRRCC1 / Fold change vs veh, LRRCC1 / RFU, ARID1A / Fold change vs veh, ARID1A / RFU, ZNF146 / Fold change vs veh, ZNF146 / RFU, ZNF330 / Fold change vs veh, ZNF330 / RFU, GPN3 / Fold change vs veh, GPN3 / RFU, C9orf123 / Fold change vs veh, C9orf123 / RFU, N4BP2L2 / Fold change vs veh, N4BP2L2 / RFU, ARFIP1 / Fold change vs veh, ARFIP1 / RFU, FAM179B / Fold change vs veh, FAM179B / RFU, BCL10 / Fold change vs veh, BCL10 / RFU, UHRF1BP1L / Fold change vs veh, UHRF1BP1L / RFU, BET1 / Fold change vs veh, BET1 / RFU, CNOT2 / Fold change vs veh, CNOT2 / RFU, ZNF268 / Fold change vs veh, ZNF268 / Fold change vs veh, ZNF507 / RFU, DGCR2 / Fold change vs veh, DGCR2 / RFU, WDSUB1 / Fold change vs veh, WDSUB1 / Fold change vs veh, HSP90B1 /// MIR3652 / RFU, ADSS / Fold change vs veh, ADSS / RFU, GK / Fold change vs veh, GK / RFU, ZNF148 / Fold change vs veh, ZNF148 / RFU, TAF9 / Fold change vs veh, TAF9 / RFU, SLC1A5 / Fold change vs veh, SLC1A5 / RFU, SLMO2 / Fold change vs veh, SLMO2 / RFU, ABCC4 / Fold change vs veh, ABCC4 / RFU, LOC101060439 /// RAP1B / Fold change vs veh, LOC101060439 /// RAP1B / RFU, RFX7 / Fold change vs veh, RFX7 / RFU, GTPBP10 / Fold change vs veh, GTPBP10 / RFU, CNEP1R1 / Fold change vs veh, CNEP1R1 / RFU, BIVM-ERCC5 /// ERCC5 / Fold change vs veh, BIVM-ERCC5 /// ERCC5 / RFU, ILF3 / Fold change vs veh, ILF3 / RFU 11762660_at / Fold change /veh 11762660_at / RFU VCAN (11757783_s_at) / Fold change /veh VCAN (11757783_s_at) / RFU DDX43 (11728927_at) / Fold change /veh DDX43 (11728927_at) / RFU KRT8 (11758188_x_at) / Fold change /veh KRT8 (11758188_x_at) / RFU NKD1 (11759106_at) / Fold change /veh NKD1 (11759106_at) / RFU SRD5A1 (11742802_a_at) / Fold change /veh SRD5A1 (11742802_a_at) / RFU TPSAB1 /// TPSB2 (11721975_s_at) / Fold change /veh TPSAB1 /// TPSB2 (11721975_s_at) / RFU GSTM3 (11746129_a_at) / Fold change /veh GSTM3 (11746129_a_at) / RFU IL23R (11737362_x_at) / Fold change /veh IL23R (11737362_x_at) / RFU TMEM51 (11727254_a_at) / Fold change /veh TMEM51 (11727254_a_at) / RFU PIWIL2 (11732686_x_at) / Fold change /veh PIWIL2 (11732686_x_at) / RFU ORM1 (11744905_x_at) / Fold change /veh ORM1 (11744905_x_at) / RFU CCDC152 (11743942_at) / Fold change /veh CCDC152 (11743942_at) / RFU ECM1 (11717891_a_at) / Fold change /veh ECM1 (11717891_a_at) / RFU IL23R (11748794_a_at) / Fold change /veh IL23R (11748794_a_at) / RFU TNFAIP8L3 (11732012_x_at) / Fold change /veh TNFAIP8L3 (11732012_x_at) / RFU MBOAT4 (11741988_at) / Fold change /veh MBOAT4 (11741988_at) / RFU 11764193_at / Fold change /veh 11764193_at / RFU TMEM53 (11763286_at) / Fold change /veh TMEM53 (11763286_at) / RFU MAGEB2 (11727129_at) / Fold change /veh MAGEB2 (11727129_at) / RFU TMEM200A (11744735_a_at) / Fold change /veh TMEM200A (11744735_a_at) / RFU CCDC152 (11751479_a_at) / Fold change /veh CCDC152 (11751479_a_at) / RFU FAM211A (11726209_a_at) / Fold change /veh FAM211A (11726209_a_at) / RFU RGS16 (11746705_a_at) / Fold change /veh RGS16 (11746705_a_at) / RFU VCAN (11755009_s_at) / Fold change /veh VCAN (11755009_s_at) / RFU RHOB (11743442_s_at) / Fold change /veh RHOB (11743442_s_at) / RFU RGS16 (11720943_a_at) / Fold change /veh RGS16 (11720943_a_at) / RFU RGS16 (11720944_at) / Fold change /veh RGS16 (11720944_at) / RFU, VPS4B / Fold change vs veh, VPS4B / RFU, CREB1 / Fold change vs veh, CREB1 / RFU, DNAJC13 / Fold change vs veh, DNAJC13 / RFU, GNAQ / Fold change vs veh, GNAQ / RFU, CDK5R1 / Fold change vs veh, CDK5R1 / RFU, ZRANB3 / Fold change vs veh, ZRANB3 / RFU, CUL4A / Fold change vs veh, CUL4A / RFU, CCNY / Fold change vs veh, CCNY / RFU, UFL1 / Fold change vs veh, UFL1 / RFU, COG3 / Fold change vs veh, COG3 / RFU, DIAPH2 / Fold change vs veh, DIAPH2 / RFU, SKA2 / Fold change vs veh, SKA2 / RFU, AFF3 / Fold change vs veh, AFF3 / RFU, LMF1 / Fold change vs veh, LMF1 / RFU, IPO11 / Fold change vs veh, IPO11 / RFU, DFFB / Fold change vs veh, DFFB / RFU, FOXP1 / Fold change vs veh, FOXP1 / RFU, CARD8 / Fold change vs veh, CARD8 / RFU, STRN3 / Fold change vs veh, STRN3 / RFU, ADK / Fold change vs veh, ADK / RFU, RASSF2 / Fold change vs veh, RASSF2 / RFU, WIPF1 / Fold change vs veh, WIPF1 / RFU, LARP1B / Fold change vs veh, LARP1B / RFU, RASA1 / Fold change vs veh, RASA1 / RFU, RB1 / Fold change vs veh, RB1 / RFU, PPFIA1 / Fold change vs veh, PPFIA1 / RFU, MAT2A / Fold change vs veh, MAT2A / RFU, CCT5 / Fold change vs veh, CCT5 / RFU, WDR92 / Fold change vs veh, WDR92 / RFU, CUX1 / Fold change vs veh, CUX1 / RFU, TTC7A / Fold change vs veh, TTC7A / RFU, TMEM135 / Fold change vs veh, TMEM135 / RFU, DEPTOR / Fold change vs veh, DEPTOR / RFU, CPM / Fold change vs veh, CPM / RFU, DNAJB6 / Fold change vs veh, DNAJB6 / RFU, CACNA2D3 / Fold change vs veh, CACNA2D3 / RFU, DTX4 / Fold change vs veh, DTX4 / RFU, TFCP2 / Fold change vs veh, TFCP2 / RFU, GMCL1 /// GMCL1P1 / Fold change vs veh, GMCL1 /// GMCL1P1 / RFU, AEBP2 / Fold change vs veh, AEBP2 / RFU, SNHG1 /// SNORD22 /// SNORD25 /// SNORD26 /// SNORD27 /// SNORD28 /// SNORD29 /// SNORD31 / Fold change vs veh, SNHG1 /// SNORD22 /// SNORD25 /// SNORD26 /// SNORD27 /// SNORD28 /// SNORD29 /// SNORD31 / Fold change (Aza/veh), C12orf56 (ProbeSet 11735607_a_at) / Fold change (ACY-1035/veh), C12orf56 (ProbeSet 11735607_a_at) / Fold change (Aza/veh), FGFR1OP (ProbeSet 11751329_s_at) / Fold change (ACY-1035/veh), FGFR1OP (ProbeSet 11751329_s_at) / Fold change (Aza/veh), VPS36 (ProbeSet 11739960_a_at) / Fold change (ACY-1035/veh), VPS36 (ProbeSet 11739960_a_at) / RFU SYPL1 (11715823_x_at) / Fold change /veh SYPL1 (11715823_x_at) / RFU IGFBP7 (11715501_s_at) / Fold change /veh IGFBP7 (11715501_s_at) / RFU REEP3 (11722064_at) / Fold change /veh REEP3 (11722064_at) / RFU IGLL1 (11728026_x_at) / Fold change /veh IGLL1 (11728026_x_at): dose or concentration left out as unconfirmed
Conditions: MV-4-11 cells, 48 hours

In the case of `Nc1ncn([C@@H]2O[C@H](CO)[C@@H](O)[C@H]2O)c(=O)n1` [azacitidine], the “RFU PLEKHG5 (11737974_s_at)” value was 50.98 RFU.
